Source: US12459943B2, “Crystalline solid forms of a BET inhibitor” (Incyte Corporation, priority 2016, dated 2025)

Experiments:
[1] = Relative stability and interconversion of crystalline forms in organic solvents; assay type: physicochemical
[2] = Stability of crystalline forms in aqueous suspension; assay type: physicochemical
Method: Recrystallization conducted in a mixture of tetrahydrofuran (THF), acetone, and n-heptane using similar procedures as above afford Form II of the crystalline Compound 1 drug substance was obtained. Both Form I and Form II have very sharp melting endotherm peaks on DSC, and the two forms are about one degree difference in peak melting temperature: 266.4° C. for Form I and 267.5° C. for Form II.

Row | Compound | relative stability of the crystalline form in IPA ([1]; IPA) | relative stability of the crystalline form in MeOH and acetone ([1]; MeOH and acetone) | interconversion of forms ([1]; mixture of methanol, acetone, and n-heptane, depending on solvent ratio, temperature, and time) | stability in aqueous suspension [2]
1 | CN1C(=O)C(C)(C)Oc2c(-c3cn(C)c(=O)c4[nH]ccc34)cc(S(C)(=O)=O)cc21 [Form II, 2,2,4-trimethyl-8-(6-methyl-7-oxo-6,7-dihydro-1H-pyrrolo[2,3-c]pyridin-4-yl)-6-(methylsulfonyl)-2H-benzo[b][1,4]oxazin-3(4H)-one] | more stable |  |  | 
2 | CN1C(=O)C(C)(C)Oc2c(-c3cn(C)c(=O)c4[nH]ccc34)cc(S(C)(=O)=O)cc21 [Form I, 2,2,4-trimethyl-8-(6-methyl-7-oxo-6,7-dihydro-1H-pyrrolo[2,3-c]pyridin-4-yl)-6-(methylsulfonyl)-2H-benzo[b][1,4]oxazin-3(4H)-one] |  | most stable form | could be interconverted to each other | stable in aqueous suspension
